Measurements published in EP4699605A1, “USE OF NOVEL COMPOUND FOR TREATING INTRACTABLE DISEASES” (YJ Cerapeutics Inc., priority 2023, dated 2024).

Columns and labels:
[1] = tested on: mTOR pathway; assay: Signaling pathway analysis in SNI model (Western blot): mTOR; format: in vivo, Sprague-Dawley rats; settings: 4 weeks after nerve injury
Description: (§1) To determine through which signaling pathway YJ102 inhibited a neuroinflammatory response, there was analyzed increased expression and activation of histone demethylase JMJD3 and expression changes of factors associated with JAK/STAT3 pathway, mTOR pathway, and TRPM7-mediated pathway, which were known as important regulatory mechanisms and epigenetic regulators mediating the neuroinflammatory response, in the tissues of the SNI animal model 4 weeks after nerve injury.

[2] = tested on: nerve injury animal models (SCI, LSS, SNI); assay: Mechanical allodynia (von-Frey filaments, 50% paw withdrawal threshold) in nerve injury animal models; format: in vivo, Sprague-Dawley rats
Description: To be used as a central nerve injury animal model, a traumatic spinal cord injury (SCI) model was prepared (FIG. 1A). Specifically, 230 to 250 g of male adult Sprague-Dawley rats were anesthetized by intraperitoneal injection of chloral hydrate (500 mg/kg), and then the back and neck regions were shaved, and the spinal cord under the back and neck regions was exposed without damaging the dura mater, and a laminectomy was performed at T9 to T10 levels. To stabilize the spine, the spinous processes of T8 and T11 were fixed, and the spine was damaged by free-falling a 10 g weight from a height of 25 mm using an NYU impactor onto the back surface of the exposed spinal cord and then the rats were left in a temperature and humidity-controlled chamber overnight while covering the muscles and skin. After surgery, the rats were subcutaneously injected with a supplement solution (5 ml, lactated ringer) and injected with antibiotics (gentamicin, 5 mg/kg, intramuscular injection) once daily for 5 days. The body weight, remaining food, and the weight of water were confirmed and recorded for all animals, and the bladder was emptied twice daily by passive bladder massage until reflex micturition was established. At this time, a Sham group was a group that was subjected to only laminectomy without damage.
To be used as a peripheral nerve injury animal model, a lumbar spinal stenosis (LSS) model was prepared (FIG. 1B). Specifically, 260 to 280 g of adult male Sprague-Dawley rats were anesthetized with intraperitoneal injection of chloral hydrate (500 mg/kg), the back region was shaved, and then the spinal plate was exposed at L4 to S2 levels. After removing the ligamentous section between L4 and L5, a trapezoidal silicone block (1.00 mm long × 1.3 to 1.2 mm wide × 1.0 mm high) was inserted into the epidural space below the L5 and L6 spinal plates without damaging the dural sac. At this time, a Sham group was a group that was subjected to only posterior […] on the animal without inserting a silicone block.
To be used as a peripheral nerve injury animal model, a sciatic nerve injury (SNI) model was prepared (FIG. 1C). Specifically, 200 to 220 g of male adult Sprague-Dawley rats were anesthetized by intraperitoneal injection of chloral hydrate (500 mg/kg), and then three terminal branches (tibial, common peroneal, and sural nerves) of the right sciatic nerve were approached, and the tibia nerve and the peroneal nerve were tightly ligated with 4-0 silk, and neurectomy was performed at a distal 3 mm position of the ligation site. At this time, a Sham group was a group that exposed only the sciatic nerve without damage.
In order to confirm a neuropathic pain inhibitory effect of YJ102 (Chemical Formula 1), a compound of the present disclosure, in the three nerve injury animal models prepared in Example 1 above, rats having pain on week 3 (SNI model) or week 4 (SCI model and LSS model) after surgery were selected and administered orally (p.o.) at 10 mg/kg or 20 mg/kg of YJ102 dissolved in a solution of DMSO, methyl pyrrolidinone, and water (1 : 1.5 : 1), or intraperitoneally injected (i.p. injection) at 1, 2, or 5 mg/kg of YJ102. In a positive control group, gabapentin or pregabalin dissolved in saline was intraperitoneally injected at a concentration of 5 mg/kg, and in a Vehicle group, the same amount of a solution of DMSO, methyl pyrrolidinone, and water was administered. Thereafter, in order to measure mechanical allodynia, the rats were located at the bottom of a transparent plastic box (10 cm × 10 cm) on top of a wire mesh (3 mm × 3 mm) and subjected to an adaptation period for approximately 20 minutes. Von-Frey filaments were applied to the soles of both paws and used with stiff nylon von-Frey monofilament series ([…], Stoelting, WoodDale, IL, USA; equivalent in grams to 0.4, 0.6, 1.0, 2.0, 4.0, 6.0, 8.0 and 15.0) with logarithmic increases in tactile (mechanical) sensitivity. […]

[3] = tested on: Raw 264.7 cell line; assay: Inflammatory factor mRNA in LPS-treated macrophage cell line (RT-PCR); format: cell-based; settings: LPS treatment
Description: In order to determine whether YJ102 affected the production of proNGF as a ligand of p75, the expression of proNGF in the bladder was confirmed by RT-PCR, Western blot analysis, and immunofluorescence staining. In addition, for further verification, a macrophage cell line Raw 264.7 (Korea Cell Line Bank, Seoul, Korea) was stimulated with 1 µg/ml of LPS, and the effect of YJ102 on the production of proNGF was investigated. At this time, YJ102 was dissolved in DMSO and treated 30 minutes before LPS treatment.
(§2) To confirm the effect of YJ102 on the expression of inflammatory factors in the bladder after spinal cord injury, the expression of inflammatory cytokines and chemokines, COX-2, iNOS, IL-6, IL-1β, MIP-1α, MIP-1β, MIP-2α, and Gro-α in bladder tissue was confirmed by RT-PCR analysis and Western blot analysis using the primers in Table 2 above. In addition, even in the Raw 264.7 cell line, the expression was verified by RT-PCR analysis.

[4] = tested on: TRPM7; assay: Signaling pathway analysis in SNI model (Western blot): TRPM7 expression; format: in vivo, Sprague-Dawley rats; settings: 4 weeks after nerve injury
Description: as §1

[5] = tested on: bladder wall; assay: Bladder hypertrophy (H&E) and collagen content in bladder muscle (Masson's trichrome) after spinal cord injury; format: in vivo, Sprague-Dawley rats
Excerpt: As one indicator of bladder dysfunction, bladder hypertrophy, which was a thicker bladder wall, and changes in collagen content in the bladder muscle were identified. Specifically, a spinal cord injury […] animal model was perfused through the left ventricle, and fixed with 4% paraformaldehyde, and the bladder was extracted, and then embedded in an optimal cutting temperature (OCT) compound, and the tissue was sectioned at a 10 µm thickness using a cryostat. In order to measure the bladder wall thickness, Hematoxylene & Eosin (Abcam) staining was performed according to a manufacturer's protocol, and in order to measure the collagen content in the muscle, Masson's trichrome (Sigma-Aldrich) staining was performed.

[6] = tested on: JAK/STAT3 pathway; assay: Signaling pathway analysis in SNI model (Western blot): JAK/STAT3; format: in vivo, Sprague-Dawley rats; settings: 4 weeks after nerve injury
Description: as §1

[7] = Observation of sedation as a side effect at high doses; format: in vivo, rats; settings: 100 mg/kg
[8] = tested on: inflammatory factors; assay: Inflammatory cytokine and chemokine expression in bladder after SCI (RT-PCR, Western blot); format: in vivo, Sprague-Dawley rats; settings: bladder tissue after spinal cord injury
Excerpt: as §2

[9] = all three models (SCI, LSS, SNI), orally 10 mg/kg or 20 mg/kg
[10] = day 1 after spinal cord injury, H&E

With `CCc1ccc(N(C(=O)COC)c2nc3cc(Cl)ccc3o2)cc1` [YJ102] as the molecule, how does the “activity of S6” value [1] read?
The value was “inhibiting”.

And the “activity of p70S6kinase” value [1]?
Its value is “inhibiting”.

And the “duration of the analgesic effect” value [2, 9]?
Its value is ≥ 4 h.

What about the “time from which the mechanical allodynia threshold was increased after administration” value [2, 9] of the same molecule?
The value was 30 min.

And the “analgesic effect compared with gabapentin or pregabalin” value ([2]; intraperitoneal, same concentration as gabapentin or pregabalin, SCI, LSS, SNI models)?
The value was “more than twice as high”.

And the “duration of the analgesic effect compared with existing drugs” value ([2]; intraperitoneal, versus gabapentin and pregabalin, SCI, LSS, SNI models)?
Its value is “more than three times longer”.

What about the “mRNA levels of IL-1β, TNF-α, IL-6, iNOS, and COX-2” value [3] of the same molecule?
Its value is “significantly reduced”.

What about the “expression of TRPM7” value [4] of the same molecule?
Its value is “inhibited”.

What about the “collagen content in the muscle” value ([5]; after spinal cord injury, Masson's trichrome) of the same molecule?
Its value is “maintained at a level almost similar to that of the normal group”.

What about the “thickness of the lamina propria” value [5, 10] of the same molecule?
Its value is “significantly reduced”.

What about the “thickness of the muscle layer” value [5, 10] of the same molecule?
Its value is “significantly reduced”.

And the “thickness of the urothelium layer” value [5, 10]?
The value was “significantly reduced”.

What about the “phosphorylation of JAK2” value [6] of the same molecule?
Its value is “significantly reducing”.

What about the “phosphorylation of STAT3” value [6] of the same molecule?
Its value is “significantly reducing”.

What about the “sedation as a side effect” value [7] of the same molecule?
The value was “not observed”.

And the “expression of COX-2, iNOS, IL-6, IL-1β, MIP-1α, MIP-1β, MIP-2α, and Gro-α” value [8]?
Its value is “significantly reduced”.
